Assay [1] has as its target UDP-N-acetylglucosamine 1-carboxyvinyltransferase (Escherichia coli (strain K12), UniProt P0A749).
The target of assay [2] is T1, UDP-N-acetylglucosamine 1-carboxyvinyltransferase 2 (Staphylococcus aureus (strain Mu50 / ATCC 700699), UniProt P65456).
T1 sequence (P65456 whole entry): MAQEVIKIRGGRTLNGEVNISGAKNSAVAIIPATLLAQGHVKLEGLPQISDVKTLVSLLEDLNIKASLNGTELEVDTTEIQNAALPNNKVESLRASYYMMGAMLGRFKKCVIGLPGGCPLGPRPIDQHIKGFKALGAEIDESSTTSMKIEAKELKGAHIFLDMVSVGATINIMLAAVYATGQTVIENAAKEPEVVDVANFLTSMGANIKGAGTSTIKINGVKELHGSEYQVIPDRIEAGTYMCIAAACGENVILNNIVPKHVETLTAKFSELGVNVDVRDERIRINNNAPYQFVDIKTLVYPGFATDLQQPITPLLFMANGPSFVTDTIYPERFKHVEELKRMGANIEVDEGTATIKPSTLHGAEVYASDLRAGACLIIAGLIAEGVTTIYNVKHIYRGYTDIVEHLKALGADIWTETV

Assay [3] has as its target UDP-N-acetylmuramate--L-alanine ligase (Escherichia coli (strain K12), UniProt P17952).
For assay [4], the target named is UDP-N-acetylmuramate--L-alanine ligase (Proteus mirabilis (strain HI4320), UniProt B4F110).
For assay [5], the target named is UDP-N-acetylmuramate--L-alanine ligase [A299V,V378L,T444A] (Klebsiella pneumoniae, UniProt A6T4N4, A299V/T444A/V378L).
The target in assay [6] is T2, UDP-N-acetylmuramoyl-L-alanyl-D-glutamate--2,6-diaminopimelate ligase (Mycobacterium tuberculosis (strain ATCC 25618 / H37Rv), UniProt P9WJL3).
T2 sequence (P9WJL3 whole entry): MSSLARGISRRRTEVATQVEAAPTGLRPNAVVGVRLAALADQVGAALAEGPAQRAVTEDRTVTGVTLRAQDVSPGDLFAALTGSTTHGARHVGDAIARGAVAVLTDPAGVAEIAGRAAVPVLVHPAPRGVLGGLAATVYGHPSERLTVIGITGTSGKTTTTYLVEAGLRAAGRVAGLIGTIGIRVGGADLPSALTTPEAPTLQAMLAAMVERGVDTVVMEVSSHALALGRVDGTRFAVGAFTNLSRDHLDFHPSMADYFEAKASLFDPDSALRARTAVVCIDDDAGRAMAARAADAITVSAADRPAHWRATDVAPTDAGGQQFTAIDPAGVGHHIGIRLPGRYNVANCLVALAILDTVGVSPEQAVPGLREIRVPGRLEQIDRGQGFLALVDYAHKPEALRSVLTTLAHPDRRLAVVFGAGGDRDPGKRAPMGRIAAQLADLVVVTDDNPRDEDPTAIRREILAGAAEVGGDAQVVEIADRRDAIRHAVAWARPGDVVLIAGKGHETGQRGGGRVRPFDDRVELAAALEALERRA

The target in assay [7] is T3, UDP-N-acetylmuramoyl-tripeptide--D-alanyl-D-alanine ligase (Escherichia coli (strain K12), UniProt P11880).
T3 sequence (P11880 whole entry): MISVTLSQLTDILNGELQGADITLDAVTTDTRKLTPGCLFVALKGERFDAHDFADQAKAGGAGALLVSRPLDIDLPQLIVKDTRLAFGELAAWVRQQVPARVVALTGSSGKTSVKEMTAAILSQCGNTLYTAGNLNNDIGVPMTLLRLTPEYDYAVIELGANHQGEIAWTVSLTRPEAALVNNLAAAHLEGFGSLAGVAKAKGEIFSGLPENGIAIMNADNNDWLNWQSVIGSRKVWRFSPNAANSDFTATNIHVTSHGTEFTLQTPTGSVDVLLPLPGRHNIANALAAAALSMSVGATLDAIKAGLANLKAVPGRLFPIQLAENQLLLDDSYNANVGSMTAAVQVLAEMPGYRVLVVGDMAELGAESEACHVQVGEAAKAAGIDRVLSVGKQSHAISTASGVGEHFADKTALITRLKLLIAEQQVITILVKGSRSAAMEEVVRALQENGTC

Assay [8] concerns the target T4, UDP-N-acetylmuramoyl-tripeptide--D-alanyl-D-alanine ligase (Streptococcus pneumoniae (strain ATCC BAA-255 / R6), UniProt Q8DNV6).
T4 sequence (Q8DNV6 whole entry): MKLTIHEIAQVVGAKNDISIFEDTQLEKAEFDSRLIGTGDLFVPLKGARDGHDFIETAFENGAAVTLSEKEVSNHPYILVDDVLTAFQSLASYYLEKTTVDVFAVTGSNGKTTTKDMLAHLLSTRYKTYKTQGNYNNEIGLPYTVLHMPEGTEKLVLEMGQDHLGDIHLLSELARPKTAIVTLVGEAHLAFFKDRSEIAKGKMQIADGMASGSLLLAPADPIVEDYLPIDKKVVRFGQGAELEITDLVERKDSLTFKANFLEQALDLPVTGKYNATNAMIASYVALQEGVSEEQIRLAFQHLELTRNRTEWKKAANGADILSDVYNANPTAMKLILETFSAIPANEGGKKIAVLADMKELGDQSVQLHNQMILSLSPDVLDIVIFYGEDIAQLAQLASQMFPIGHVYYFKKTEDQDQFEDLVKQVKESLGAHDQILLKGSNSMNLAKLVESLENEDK

Assay [9] addresses UDP-N-acetylmuramoyl-tripeptide--D-alanyl-D-alanine ligase (Staphylococcus aureus (strain COL), UniProt A0A0H2WWP1).
In assay [10] the target is T5, UDP-N-acetylglucosamine 1-carboxyvinyltransferase (Enterobacter cloacae subsp. cloacae (strain ATCC 13047 / DSM 30054 / NBRC 13535 / NCTC 10005 / WDCM 00083 / NCDC 279-56), UniProt P33038).
Assay [11] concerns the target T5, UDP-N-acetylglucosamine 1-carboxyvinyltransferase. This is another data set of the same source.

T5 sequence (P33038 whole entry): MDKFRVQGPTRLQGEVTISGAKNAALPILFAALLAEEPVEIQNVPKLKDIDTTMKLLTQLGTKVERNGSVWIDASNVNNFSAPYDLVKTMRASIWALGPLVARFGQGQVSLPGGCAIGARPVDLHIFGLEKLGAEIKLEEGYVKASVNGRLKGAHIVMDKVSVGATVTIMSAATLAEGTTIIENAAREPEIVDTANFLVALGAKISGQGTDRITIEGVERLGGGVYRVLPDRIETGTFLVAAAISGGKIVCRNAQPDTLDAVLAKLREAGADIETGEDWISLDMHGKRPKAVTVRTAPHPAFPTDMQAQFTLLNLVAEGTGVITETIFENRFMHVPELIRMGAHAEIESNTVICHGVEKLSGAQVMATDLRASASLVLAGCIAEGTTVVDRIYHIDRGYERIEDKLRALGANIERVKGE
Chain of UDP-N-acetylmuramate--L-alanine ligase (Proteus mirabilis (strain HI4320), UniProt B4F110) (B4F110 whole entry): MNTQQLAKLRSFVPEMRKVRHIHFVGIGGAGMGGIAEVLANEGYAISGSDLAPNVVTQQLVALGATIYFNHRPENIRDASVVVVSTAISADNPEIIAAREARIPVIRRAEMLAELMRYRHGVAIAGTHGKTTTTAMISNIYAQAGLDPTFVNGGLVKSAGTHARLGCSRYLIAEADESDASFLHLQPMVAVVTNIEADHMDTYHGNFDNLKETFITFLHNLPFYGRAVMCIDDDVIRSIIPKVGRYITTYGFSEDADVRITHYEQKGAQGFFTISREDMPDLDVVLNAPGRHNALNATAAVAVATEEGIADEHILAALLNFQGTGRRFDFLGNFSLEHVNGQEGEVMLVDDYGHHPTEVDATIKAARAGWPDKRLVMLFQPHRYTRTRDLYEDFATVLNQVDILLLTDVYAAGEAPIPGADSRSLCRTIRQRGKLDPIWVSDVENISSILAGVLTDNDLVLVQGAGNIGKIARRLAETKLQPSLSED
Chain of UDP-N-acetylmuramate--L-alanine ligase [A299V,V378L,T444A] (A6T4N4 whole entry A299V/V378L/T444A): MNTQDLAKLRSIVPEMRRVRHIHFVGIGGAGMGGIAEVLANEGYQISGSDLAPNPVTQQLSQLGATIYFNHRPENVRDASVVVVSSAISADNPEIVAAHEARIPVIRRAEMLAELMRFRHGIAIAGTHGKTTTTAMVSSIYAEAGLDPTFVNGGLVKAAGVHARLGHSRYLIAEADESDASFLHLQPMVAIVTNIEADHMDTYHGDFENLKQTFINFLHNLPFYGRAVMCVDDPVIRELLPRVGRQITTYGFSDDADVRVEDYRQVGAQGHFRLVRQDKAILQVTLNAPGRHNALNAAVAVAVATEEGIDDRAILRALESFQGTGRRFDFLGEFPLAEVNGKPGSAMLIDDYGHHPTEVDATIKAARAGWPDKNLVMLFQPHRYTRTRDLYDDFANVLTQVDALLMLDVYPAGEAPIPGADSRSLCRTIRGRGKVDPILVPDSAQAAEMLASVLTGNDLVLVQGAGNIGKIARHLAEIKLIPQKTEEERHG
Chain of UDP-N-acetylglucosamine 1-carboxyvinyltransferase (Escherichia coli (strain K12), UniProt P0A749) (P0A749 whole entry): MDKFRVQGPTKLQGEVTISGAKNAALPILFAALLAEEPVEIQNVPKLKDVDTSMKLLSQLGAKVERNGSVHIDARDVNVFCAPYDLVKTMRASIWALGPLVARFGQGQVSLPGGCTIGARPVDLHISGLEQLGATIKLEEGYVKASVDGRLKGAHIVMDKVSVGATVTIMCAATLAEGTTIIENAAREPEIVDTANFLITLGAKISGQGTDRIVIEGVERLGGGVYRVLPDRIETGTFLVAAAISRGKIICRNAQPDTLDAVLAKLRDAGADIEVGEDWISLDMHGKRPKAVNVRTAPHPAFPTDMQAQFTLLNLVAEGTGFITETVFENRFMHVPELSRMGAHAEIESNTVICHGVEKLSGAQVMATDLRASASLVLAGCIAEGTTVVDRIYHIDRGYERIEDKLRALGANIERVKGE
Chain of UDP-N-acetylmuramoyl-tripeptide--D-alanyl-D-alanine ligase (Staphylococcus aureus (strain COL), UniProt A0A0H2WWP1) (A0A0H2WWP1 whole entry): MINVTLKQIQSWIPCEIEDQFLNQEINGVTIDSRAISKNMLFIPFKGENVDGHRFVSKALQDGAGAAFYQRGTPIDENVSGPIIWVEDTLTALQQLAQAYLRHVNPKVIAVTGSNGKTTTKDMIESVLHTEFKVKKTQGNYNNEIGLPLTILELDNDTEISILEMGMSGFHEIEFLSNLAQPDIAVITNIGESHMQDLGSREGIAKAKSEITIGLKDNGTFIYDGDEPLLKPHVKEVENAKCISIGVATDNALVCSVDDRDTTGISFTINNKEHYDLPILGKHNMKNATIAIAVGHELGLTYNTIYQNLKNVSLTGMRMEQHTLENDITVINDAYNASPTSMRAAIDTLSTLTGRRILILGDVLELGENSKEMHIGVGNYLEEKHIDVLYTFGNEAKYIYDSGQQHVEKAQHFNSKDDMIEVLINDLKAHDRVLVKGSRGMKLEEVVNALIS
Chain of UDP-N-acetylmuramate--L-alanine ligase (Escherichia coli (strain K12), UniProt P17952) (P17952 whole entry): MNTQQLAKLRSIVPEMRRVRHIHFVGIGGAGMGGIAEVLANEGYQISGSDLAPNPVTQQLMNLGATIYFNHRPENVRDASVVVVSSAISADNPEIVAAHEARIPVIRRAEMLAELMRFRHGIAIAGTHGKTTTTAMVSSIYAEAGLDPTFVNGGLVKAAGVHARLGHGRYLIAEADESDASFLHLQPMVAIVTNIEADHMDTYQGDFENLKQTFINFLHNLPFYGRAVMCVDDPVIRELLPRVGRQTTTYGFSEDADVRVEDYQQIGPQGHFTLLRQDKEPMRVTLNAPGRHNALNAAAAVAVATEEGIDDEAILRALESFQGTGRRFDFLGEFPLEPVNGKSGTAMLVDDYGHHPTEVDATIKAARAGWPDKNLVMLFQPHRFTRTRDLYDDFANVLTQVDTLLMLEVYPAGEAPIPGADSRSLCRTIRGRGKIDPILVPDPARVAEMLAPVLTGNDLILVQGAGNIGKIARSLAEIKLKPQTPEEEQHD

Broadly, the Ki is the equilibrium dissociation constant of an inhibitor or competing ligand from its target. A low value points to a stronger hold on the target. For the compound `CC(C)[C@H](NC(=O)[C@H](NC(=O)[C@@H](NC(=O)[C@H](NC(=O)[C@@H](NC(=O)[C@H](NC(=O)[C@@H](NC(=O)[C@H](NC(=O)[C@H](N)c1ccc(O)cc1)c1cc(O)cc(O)c1)C(C)C)c1cc(O)cc(O)c1)c1ccc(O)cc1)c1cc(O)cc(O)c1)c1ccc(O)cc1)c1cc(O)cc(O)c1)C(=O)N[C@@H](C(=O)N[C@H](C(=O)N[C@@H](Cc1ccccc1)C(=O)N[C@@H](CC(=O)O)C(=O)O)c1ccc(O)cc1)c1cc(O)cc(O)c1` [Feglymicin (compound 30)], the figures for the Ki in assay [1] and in assay [2] were 3.4 µM and 3.5 µM, respectively.

As a reminder, the IC50 is the point on the concentration scale where inhibition reaches its midpoint. The low end stands for inhibition by little substance, the high end for a need for much substance. On to `CC(Oc1nc2ccccc2nc1N)c1ccccc1` (configuration not stated) [MurC inhibitor (compound 23)], for which the IC50 was 30.2 µM in assay [3], 41.4 µM in assay [4] and 26.4 µM in [5].

In assay [6], `C[C@]12Cc3cc4c(cc3-c3cccc(c31)CCN2)OCO4` [MurE inhibitor (compound 52)] yielded an IC50 of 67 µM.

Regarding `CC(C)=CCC/C(C)=C\COc1cc(O)cc(O)c1C(=O)C(C)C` [MurE inhibitor (compound 53)], half-maximal inhibition in [6] (IC50) was put at 75 µM.

In the case of `N#CC1=C(NC(=O)c2cc(S(=O)(=O)N3CCOCC3)c(Cl)cc2Cl)SC2CN(Cc3cccc(O)c3)CCC12` (configuration not stated) [MurF inhibitor (compound 57)], the IC50 in assay [7] was 81 µM; in assay [8], 0.42 µM; in [9] it was 91 µM.

In assay [10], `CN(C(=O)C1CC(OS(=O)(=O)c2cccc3ccccc23)CCC1NS(=O)(=O)c1cccc2ccccc12)[C@@H](CCCC(=O)O)C(=O)O` (some centres not stated) [T6361 (compound 4)] showed a Ki of 16 µM.

With `Cc1c(O)c(O)c2c(c1O)O2` [Terreic acid (12)], inhibition in assay [11] was half-maximal at 14 µM (IC50).
